# Test results published in ChEMBL document CHEMBL1152117, “A versatile synthesis of 2-methoxyestradiol, an endogenous metabolite of estradiol which inhibits tubulin polymerization by binding to the colchicine binding site” (Bioorg Med Chem Lett, 1994).
# Activity calls are given as the source filed them. No cut-off for these calls is given here.
# Legend:
# Mus musculus [1] = assay: In vivo inhibition of growth of solid tumors when administered orally in mice; Active; format: functional, organism-based
# Mus musculus [2] = assay: In vivo inhibition of neovascularization of solid tumors when administered orally in mice; Active; format: functional, organism-based
compound,measurement,setting,value
COc1cc2c(cc1O)CC[C@@H]1[C@@H]2CC[C@]2(C)[C@@H](O)CC[C@@H]12,Activity,Mus musculus [1],Active
same,Activity,Mus musculus [2],Active
